Data set [1] deals with T1, Phosphatidylinositol 4,5-bisphosphate 3-kinase catalytic subunit beta isoform (Homo sapiens, UniProt P42338). The experiment in a line: Inhibition of human PI3Kbeta-mediated Akt phosphorylation at Ser473 residue expressed in PTEN-deficient human PC3 cells by chemiluminescence assay. The format is cell-based, PC-3.
In data set [2] the target is T1, Phosphatidylinositol 4,5-bisphosphate 3-kinase catalytic subunit beta isoform. Nature of the data set: Inhibition of N-terminus poly-His tagged human PI3Kbeta expressed in baculovirus infected insect […] cells coexpressing p85alpha using PI(4,5)P2 as substrate preincubated with compound for 15 mins measured after 10 mins by HTRF assay. (TR-FRET usually uses a lanthanide donor and a delayed reading to cut background.)

In data set [3] the target is Serine/threonine-protein kinase mTOR (Homo sapiens, UniProt P42345). The experiment in a line: Inhibition of mTOR.
Data set [4] deals with Phosphatidylinositol 4,5-bisphosphate 3-kinase catalytic subunit gamma isoform (Homo sapiens, UniProt P48736). The experiment in a line: Inhibition of N-terminus poly-His tagged human PI3Kgamma expressed in baculovirus infected insect sf9 cells using PI(4,5)P2 as substrate preincubated with compound for 15 mins measured after 10 mins by HTRF assay.
Chain of Phosphatidylinositol 4,5-bisphosphate 3-kinase catalytic subunit gamma isoform (P48736 whole entry, canonical isoform): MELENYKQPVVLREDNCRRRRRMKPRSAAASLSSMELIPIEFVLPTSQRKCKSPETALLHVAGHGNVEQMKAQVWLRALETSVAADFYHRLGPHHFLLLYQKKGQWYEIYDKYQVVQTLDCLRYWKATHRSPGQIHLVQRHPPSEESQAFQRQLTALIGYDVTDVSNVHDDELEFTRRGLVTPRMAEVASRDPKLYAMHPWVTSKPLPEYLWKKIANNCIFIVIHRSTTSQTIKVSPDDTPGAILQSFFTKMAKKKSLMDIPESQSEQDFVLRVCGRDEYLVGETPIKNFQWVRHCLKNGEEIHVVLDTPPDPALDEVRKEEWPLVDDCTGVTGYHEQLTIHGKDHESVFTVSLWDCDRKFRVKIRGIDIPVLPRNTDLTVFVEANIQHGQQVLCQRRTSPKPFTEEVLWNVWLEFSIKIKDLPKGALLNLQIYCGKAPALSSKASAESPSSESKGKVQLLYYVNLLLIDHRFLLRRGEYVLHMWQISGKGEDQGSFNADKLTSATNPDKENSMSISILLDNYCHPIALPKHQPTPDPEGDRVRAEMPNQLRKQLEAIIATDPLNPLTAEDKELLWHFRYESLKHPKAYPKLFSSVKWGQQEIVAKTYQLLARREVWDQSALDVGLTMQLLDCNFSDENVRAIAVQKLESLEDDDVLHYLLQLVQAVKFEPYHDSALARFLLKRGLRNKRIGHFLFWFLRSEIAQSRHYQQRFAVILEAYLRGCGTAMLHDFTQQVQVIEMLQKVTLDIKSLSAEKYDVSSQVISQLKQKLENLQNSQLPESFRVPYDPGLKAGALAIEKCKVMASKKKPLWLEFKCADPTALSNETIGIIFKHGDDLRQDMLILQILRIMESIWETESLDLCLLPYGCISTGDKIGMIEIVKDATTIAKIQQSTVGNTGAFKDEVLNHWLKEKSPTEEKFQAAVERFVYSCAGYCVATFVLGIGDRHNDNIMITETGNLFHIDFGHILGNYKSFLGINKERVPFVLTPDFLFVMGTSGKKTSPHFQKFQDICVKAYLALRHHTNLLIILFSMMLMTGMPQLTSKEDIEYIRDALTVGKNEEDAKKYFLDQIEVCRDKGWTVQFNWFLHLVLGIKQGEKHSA
For data set [5], the target named is T2, Phosphatidylinositol 4,5-bisphosphate 3-kinase catalytic subunit delta isoform (Homo sapiens, UniProt O00329).
T2 sequence (O00329 whole entry): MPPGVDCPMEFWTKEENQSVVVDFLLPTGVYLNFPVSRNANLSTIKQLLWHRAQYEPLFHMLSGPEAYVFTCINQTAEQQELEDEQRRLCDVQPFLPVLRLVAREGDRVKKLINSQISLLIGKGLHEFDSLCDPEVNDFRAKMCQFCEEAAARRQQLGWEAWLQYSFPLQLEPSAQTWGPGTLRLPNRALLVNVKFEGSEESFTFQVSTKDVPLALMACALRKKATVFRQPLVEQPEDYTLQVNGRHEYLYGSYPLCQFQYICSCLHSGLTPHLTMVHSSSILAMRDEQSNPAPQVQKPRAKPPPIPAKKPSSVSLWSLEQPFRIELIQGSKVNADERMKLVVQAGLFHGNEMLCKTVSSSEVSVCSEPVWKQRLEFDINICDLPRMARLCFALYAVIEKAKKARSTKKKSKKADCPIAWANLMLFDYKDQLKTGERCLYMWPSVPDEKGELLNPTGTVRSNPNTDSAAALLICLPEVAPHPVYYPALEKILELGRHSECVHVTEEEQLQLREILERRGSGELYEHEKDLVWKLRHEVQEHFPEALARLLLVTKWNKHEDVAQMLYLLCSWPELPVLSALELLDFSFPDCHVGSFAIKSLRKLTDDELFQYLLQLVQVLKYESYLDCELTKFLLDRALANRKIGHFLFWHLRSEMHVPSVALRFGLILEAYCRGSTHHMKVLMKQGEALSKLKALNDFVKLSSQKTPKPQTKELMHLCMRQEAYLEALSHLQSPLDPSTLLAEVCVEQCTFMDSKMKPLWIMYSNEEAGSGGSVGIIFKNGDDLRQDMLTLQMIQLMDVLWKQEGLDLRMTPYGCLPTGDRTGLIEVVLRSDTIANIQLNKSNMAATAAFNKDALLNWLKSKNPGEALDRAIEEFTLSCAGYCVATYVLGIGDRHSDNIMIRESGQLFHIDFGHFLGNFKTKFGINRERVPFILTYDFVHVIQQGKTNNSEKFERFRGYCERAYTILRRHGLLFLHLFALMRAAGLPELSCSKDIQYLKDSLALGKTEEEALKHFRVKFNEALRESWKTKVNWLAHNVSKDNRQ
The experiment in a line: Inhibition of poly-His tagged human PI3Kdelta expressed in baculovirus infected insect sf9 cells coexpressing p85alpha using PI(4,5)P2 as substrate preincubated with compound for 15 mins measured after 10 mins by HTRF assay.

Data set [6] addresses Phosphatidylinositol 4,5-bisphosphate 3-kinase catalytic subunit alpha isoform (Homo sapiens, UniProt P42336). Nature of the data set: Inhibition of N-terminus poly-His tagged human PI3Kalpha expressed in baculovirus infected insect sf9 cells coexpressing p85alpha using PI(4,5)P2 as substrate preincubated with compound for 15 mins measured after 10 mins by HTRF assay.
A short description of data set [7]: Apparent permeability of the compound across human Caco2 cells. The format is ADME, cell-based. The note with it: Caco-2. (In general: Caco-2 monolayers are a common model of the intestinal barrier.)
Data set [8] is described as follows: Drug metabolism in human liver microsomes. Note: time not given here. The data set is classed as ADME, Microsome. The following applies: read-out: Drug metabolism.
Data set [9] concerns the target Cytochrome P450 3A4 (Homo sapiens, UniProt P08684). Nature of the data set: Inhibition of human recombinant CPY3A4.
Data set [10] in a line: Drug metabolism in mouse liver microsomes. Note: time not given here. The data set is classed as ADME, Microsome. The note with it: read-out: Drug metabolism. (In general: Liver microsomes are a subcellular fraction often used to study metabolism.)

In ChEMBL document CHEMBL2062364, “Discovery and optimization of new benzimidazole- and benzoxazole-pyrimidone selective PI3Kβ inhibitors for the treatment of phosphatase and TENsin homologue (PTEN)-deficient cancers” (J Med Chem, 2012) one finds IC50, Papp and metabolised data, which are given here for 26 molecules.

As usually defined, the pIC50 is −log10 of the IC50, conventionally taken in molar units. The Papp is a coefficient for how fast a substance crosses the barrier.

The structures appear in SMILES notation. pIC50: −log10 of the molar value.

T1 sequence (P42338 whole entry, canonical isoform): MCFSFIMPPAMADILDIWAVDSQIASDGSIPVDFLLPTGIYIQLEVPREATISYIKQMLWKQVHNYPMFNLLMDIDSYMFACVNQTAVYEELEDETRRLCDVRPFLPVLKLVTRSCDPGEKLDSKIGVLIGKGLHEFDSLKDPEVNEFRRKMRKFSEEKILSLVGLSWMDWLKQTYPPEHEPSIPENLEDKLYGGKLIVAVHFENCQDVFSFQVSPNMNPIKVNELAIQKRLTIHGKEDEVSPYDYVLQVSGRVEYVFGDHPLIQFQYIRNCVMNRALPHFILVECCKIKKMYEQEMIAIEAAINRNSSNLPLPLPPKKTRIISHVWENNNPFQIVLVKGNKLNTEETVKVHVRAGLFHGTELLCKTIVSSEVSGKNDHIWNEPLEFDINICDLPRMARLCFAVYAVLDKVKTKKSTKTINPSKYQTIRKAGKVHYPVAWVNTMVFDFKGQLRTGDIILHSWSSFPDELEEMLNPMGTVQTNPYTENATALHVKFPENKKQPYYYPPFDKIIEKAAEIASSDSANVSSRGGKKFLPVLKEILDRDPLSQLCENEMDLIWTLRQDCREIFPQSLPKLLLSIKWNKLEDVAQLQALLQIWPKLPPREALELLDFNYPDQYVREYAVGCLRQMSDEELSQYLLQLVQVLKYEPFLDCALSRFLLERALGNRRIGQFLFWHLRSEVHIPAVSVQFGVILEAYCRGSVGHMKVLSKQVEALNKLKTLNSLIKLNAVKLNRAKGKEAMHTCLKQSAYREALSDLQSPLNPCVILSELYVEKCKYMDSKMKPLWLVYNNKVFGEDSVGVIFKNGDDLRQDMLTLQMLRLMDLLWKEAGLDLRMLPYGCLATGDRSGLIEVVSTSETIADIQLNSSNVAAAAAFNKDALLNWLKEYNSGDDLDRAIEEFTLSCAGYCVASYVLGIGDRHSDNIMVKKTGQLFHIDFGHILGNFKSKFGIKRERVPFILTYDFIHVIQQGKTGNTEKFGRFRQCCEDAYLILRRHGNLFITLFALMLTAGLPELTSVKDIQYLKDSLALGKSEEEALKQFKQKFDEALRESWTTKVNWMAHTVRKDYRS
Chain of Phosphatidylinositol 4,5-bisphosphate 3-kinase catalytic subunit alpha isoform (P42336 whole entry, canonical isoform): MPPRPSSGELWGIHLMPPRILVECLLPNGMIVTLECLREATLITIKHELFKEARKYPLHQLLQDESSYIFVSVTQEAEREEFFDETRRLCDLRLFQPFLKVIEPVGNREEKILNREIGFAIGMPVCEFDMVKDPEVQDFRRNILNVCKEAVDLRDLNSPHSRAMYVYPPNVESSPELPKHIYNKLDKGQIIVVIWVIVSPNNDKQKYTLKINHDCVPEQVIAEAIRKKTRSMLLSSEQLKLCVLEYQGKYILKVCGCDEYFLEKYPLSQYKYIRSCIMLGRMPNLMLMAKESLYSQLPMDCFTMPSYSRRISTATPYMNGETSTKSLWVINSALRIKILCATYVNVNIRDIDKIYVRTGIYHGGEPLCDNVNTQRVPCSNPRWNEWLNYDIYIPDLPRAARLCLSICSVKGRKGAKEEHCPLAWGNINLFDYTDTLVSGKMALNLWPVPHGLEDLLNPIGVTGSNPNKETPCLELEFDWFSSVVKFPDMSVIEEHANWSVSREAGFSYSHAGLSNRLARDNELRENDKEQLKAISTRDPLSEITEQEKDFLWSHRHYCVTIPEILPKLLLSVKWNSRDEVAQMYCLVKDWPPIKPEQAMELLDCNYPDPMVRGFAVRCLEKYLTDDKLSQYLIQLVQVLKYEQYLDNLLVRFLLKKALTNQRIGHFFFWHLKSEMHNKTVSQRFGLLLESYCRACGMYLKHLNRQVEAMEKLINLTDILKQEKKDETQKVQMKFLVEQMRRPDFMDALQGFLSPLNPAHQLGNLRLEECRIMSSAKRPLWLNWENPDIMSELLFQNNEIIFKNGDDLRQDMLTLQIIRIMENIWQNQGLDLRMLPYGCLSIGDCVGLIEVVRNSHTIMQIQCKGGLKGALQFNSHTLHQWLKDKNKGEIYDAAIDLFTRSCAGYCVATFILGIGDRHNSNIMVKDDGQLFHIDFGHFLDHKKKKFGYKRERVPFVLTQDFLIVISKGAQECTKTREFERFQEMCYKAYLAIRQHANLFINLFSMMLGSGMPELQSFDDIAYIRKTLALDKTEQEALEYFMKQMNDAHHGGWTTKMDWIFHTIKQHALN
Chain of Cytochrome P450 3A4 (P08684 whole entry): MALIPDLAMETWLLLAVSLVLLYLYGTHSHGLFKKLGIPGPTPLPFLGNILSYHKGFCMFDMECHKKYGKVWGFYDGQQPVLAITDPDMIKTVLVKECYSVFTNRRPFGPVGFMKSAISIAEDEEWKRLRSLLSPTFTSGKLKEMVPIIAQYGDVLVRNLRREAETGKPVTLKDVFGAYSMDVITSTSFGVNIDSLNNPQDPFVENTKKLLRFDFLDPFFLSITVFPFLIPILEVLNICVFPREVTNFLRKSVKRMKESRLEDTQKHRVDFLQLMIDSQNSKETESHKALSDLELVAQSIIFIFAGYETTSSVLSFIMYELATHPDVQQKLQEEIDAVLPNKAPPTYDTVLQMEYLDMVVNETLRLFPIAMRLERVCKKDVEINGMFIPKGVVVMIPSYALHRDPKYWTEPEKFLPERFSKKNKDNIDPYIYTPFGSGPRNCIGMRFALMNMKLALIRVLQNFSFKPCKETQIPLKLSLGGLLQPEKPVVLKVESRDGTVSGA

Take `O=c1cc(N2CCOCC2)nc(Cc2nc3c(-c4cccnc4)cccc3o2)[nH]1`: the negative-log IC50 (pIC50) in data set [1] was 7.36; in data set [2] it was 6.81; in data set [3] it was less than 5.00; in [4], less than 5.00; in [5], 6.47; in data set [6], less than 5.00.

Regarding `Cc1cccc2oc(Cc3nc(N4CCOCC4)cc(=O)[nH]3)nc12`, the negative-log IC50 (pIC50) in data set [1] was 7.12; in [2] it was 6.34; in [3] it was less than 5.00; in data set [4] it was 5.48; in [5], 5.56; in [6], less than 5.00.

As for `O=c1cc(N2CCOCC2)nc(Cc2nc3cc(F)ccc3n2C2CC2)[nH]1`, the pIC50 in [1] is 8.05; in [2], 7.54; in data set [3] it was less than 5.00; in data set [4], less than 5.00; in data set [5], 7.44; in data set [9], less than 4.40. Further, the negative-log IC50 (pIC50) in data set [6] is less than 5.00. For the same molecule, the apparent permeability (Papp) in [7] turned out to be 2.2 ×10⁻⁶ cm/s. Moreover, the metabolised in data set [8] and in [10] was 99% in each case.

Take `COCCn1c(Cc2nc(N3CCOCC3)cc(=O)[nH]2)nc2cc(F)ccc21`: the pIC50 in [1] is 6.96; in [2], 6.69; in data set [3] it was less than 5.00; in data set [4] it was less than 5.00; in [5], 6.57; in data set [6] it was less than 5.00.

As for `O=c1cc(N2CCOCC2)nc(Cc2nc3c(-c4ccccn4)cccc3o2)[nH]1`, the pIC50 in data set [1] was 6.95; in data set [2], 6.47; in data set [3], less than 5.00; in data set [4], less than 5.00; in [5], 5.66; in data set [6], 5.48.

Consider `O=c1cc(N2CCOCC2)nc(Cc2nc3ccc(F)cc3o2)[nH]1`, for which the negative logarithm of the IC50 (pIC50) in data set [1] was 7.31; in [2], 6.90; in [3], less than 5.00; in [4], less than 5.00; in data set [5], 5.04; in data set [6], less than 5.00.

Consider `Cn1c(Cc2nc(N3CCOCC3)cc(=O)[nH]2)nc2ccc(F)cc21`, for which the negative-log IC50 (pIC50) in data set [1] is 6.54; in data set [2] it was 6.54; in [3] it was less than 5.00; in data set [4], less than 5.00; in [5] it was 5.97; in data set [6] it was less than 5.00.

Regarding `Cn1c(Cc2nc(N3CCOCC3)cc(=O)[nH]2)nc2c(-c3ccccc3)cccc21`, the negative-log IC50 (pIC50) is 7.59 in data set [1]; 7.24 in data set [2]; less than 5.00 in [3]; less than 5.00 in [4]; 6.56 in [5]; less than 4.40 in data set [9]. Also, the pIC50 in data set [6] was 6.50. For the same molecule, the apparent permeability coefficient (Papp) in data set [7] came out at 11.4 ×10⁻⁶ cm/s. For the same molecule, the metabolised in data set [8] was 41%; in data set [10], 40%.

For the molecule `Cn1c(Cc2nc(N3CCOCC3)cc(=O)[nH]2)nc2ccc(-c3ccccc3)cc21`, the negative-log IC50 (pIC50) in data set [2] is 5.47; in [3] it was less than 5.00; in data set [4] it was less than 5.00; in [5], 5.47; in [6], 5.11.

`COc1ccc2[nH]c(Cc3nc(N4CCOCC4)cc(=O)[nH]3)nc2c1`: the pIC50 is 6.32 in data set [1]; 6.71 in data set [2]; less than 5.00 in [3]; less than 5.00 in [4]; 6.40 in [5]; less than 5.00 in [6].

`O=C(Cc1nc(N2CCOCC2)cc(=O)[nH]1)Nc1ccccc1`: the pIC50 in data set [2] was 7.38; in data set [3] it was less than 5.00; in data set [4] it was less than 5.00; in data set [5], 6.93; in data set [6] it was 5.67.

Turning to `Cc1ccc2nc(Cc3nc(N4CCOCC4)cc(=O)[nH]3)oc2c1`, the negative-log IC50 (pIC50) in [1] was 6.84; in data set [2], 6.28; in data set [3], less than 5.00; in [4] it was less than 5.00; in data set [5] it was 5.94; in data set [6] it was 5.01.

For `O=c1cc(N2CCOCC2)nc(Cc2nc3cccc(F)c3o2)[nH]1`, the pIC50 was 7.06 in data set [1]; 6.43 in data set [2]; less than 5.00 in data set [3]; less than 5.00 in [4]; 5.59 in data set [5]; less than 5.00 in [6].

With `Cn1c(Cc2nc3ccccc3o2)nc(N2CCOCC2)cc1=O`, the pIC50 in [2] is 5.88; in data set [3], less than 5.00; in data set [6], less than 5.00.

`Cn1c(Cc2nc3cc(F)ccc3[nH]2)nc(N2CCOCC2)cc1=O`: the pIC50 is 6.13 in data set [2]; less than 5.00 in data set [3]; less than 5.00 in data set [4]; 5.24 in data set [5]; less than 5.00 in data set [6].

In the case of `Cc1cc(F)ccc1Oc1cccc2c(=O)cc(N3CCOCC3)[nH]c12`, the negative-log IC50 (pIC50) was 7.14 in [1]; 7.49 in data set [2]; less than 5.00 in [4]; 6.78 in [5]; less than 5.00 in data set [6].

For `O=c1cc(N2CCOCC2)nc(Cc2nc3c(F)cccc3o2)[nH]1`, the negative logarithm of the IC50 (pIC50) in data set [1] was 6.90; in [2], 6.25; in [3], less than 5.00; in data set [4] it was less than 5.00; in [5], 5.07; in [6], less than 5.00.

Regarding `O=c1cc(N2CCOCC2)nc(Cc2nc3ccccc3n2Cc2ccccc2)[nH]1`, the negative-log IC50 (pIC50) in [1] is 6.98; in data set [2] it was 6.95; in data set [3], less than 5.00; in [4] it was less than 5.00; in data set [5], 7.08; in data set [6], 5.24.

Take `O=c1cc(N2CCOCC2)nc(Cc2nc3ccccc3[nH]2)[nH]1`: the pIC50 was 6.18 in [1]; 6.80 in data set [2]; less than 5.00 in [3]; less than 5.00 in data set [4]; 5.54 in data set [5]; less than 5.00 in data set [6].

`Cc1ccc2[nH]c(Cc3nc(N4CCOCC4)cc(=O)[nH]3)nc2c1`: the negative-log IC50 (pIC50) was 6.85 in data set [1]; 6.35 in data set [2]; less than 5.00 in data set [3]; less than 5.00 in data set [4]; 5.66 in data set [5]; 5.01 in data set [6].

Take `Cc1cccc2nc(Cc3nc(N4CCOCC4)cc(=O)[nH]3)oc12`: the negative-log IC50 (pIC50) in data set [1] was 6.69; in [2] it was 6.37; in [3], less than 5.00; in [4], less than 5.00; in data set [5], 5.62; in data set [6], 5.15.

Consider `Cc1ccc2oc(Cc3nc(N4CCOCC4)cc(=O)[nH]3)nc2c1`, for which the negative logarithm of the IC50 (pIC50) in data set [1] was 6.63; in data set [2] it was 6.02; in [3], less than 5.00; in data set [6] it was less than 5.00.

As to `Cn1c(Cc2nc(N3CCOCC3)cc(=O)[nH]2)nc2cc(-c3ccccc3)ccc21`, the negative-log IC50 (pIC50) was less than 5.00 in data set [2]; less than 5.00 in data set [3]; less than 5.00 in data set [4]; 5.17 in data set [5]; less than 5.00 in data set [6].

Take `O=c1cc(N2CCOCC2)nc(Cc2nc3c(Br)cccc3o2)[nH]1`: the pIC50 was 6.90 in data set [1]; 6.23 in data set [2]; less than 5.00 in data set [3]; less than 5.00 in [4]; 5.64 in data set [5]; less than 5.00 in data set [6].

`O=c1cc(N2CCOCC2)nc(Cc2nc3ccc(C(F)(F)F)cc3[nH]2)[nH]1`: the pIC50 in data set [1] was 6.02; in data set [2] it was 6.41; in data set [3], less than 5.00; in data set [4] it was less than 5.00; in [5] it was 5.55; in data set [6], less than 5.00.

Turning to `O=c1cc(N2CCOCC2)nc(Cc2nc3c(-c4ccncc4)cccc3o2)[nH]1`, the negative-log IC50 (pIC50) is 7.33 in data set [1]; 6.80 in data set [2]; less than 5.00 in [3]; less than 5.00 in [4]; 6.00 in [5]; less than 5.00 in data set [6].
